One may read the IC50 as the concentration that gives 50% inhibition. A low value points to higher potency. Broadly, the inhibition is the relative decrease from the control value, in per cent.

Molecules are shown by their SMILES.

Data set [1] deals with T1, Neuropeptide Y receptor type 2 (Homo sapiens, UniProt P49146).
T1 sequence (P49146 whole entry): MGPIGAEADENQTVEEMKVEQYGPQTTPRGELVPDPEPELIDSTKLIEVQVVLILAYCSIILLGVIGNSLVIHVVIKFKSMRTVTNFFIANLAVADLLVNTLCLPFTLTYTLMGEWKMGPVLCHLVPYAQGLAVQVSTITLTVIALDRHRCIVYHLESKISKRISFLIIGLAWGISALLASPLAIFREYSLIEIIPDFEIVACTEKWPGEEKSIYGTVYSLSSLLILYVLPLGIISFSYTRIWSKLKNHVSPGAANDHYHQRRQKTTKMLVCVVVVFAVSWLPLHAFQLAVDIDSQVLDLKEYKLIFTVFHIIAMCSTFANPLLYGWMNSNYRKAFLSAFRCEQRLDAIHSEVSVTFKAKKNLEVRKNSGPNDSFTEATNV
Put plainly: Displacement of [125I]PYY from human NPY Y2 receptor expressed endogenously in KAN-Ts cells by scintillation counting. The class given is cell-based. For orientation: Displacement assays read how much labelled ligand stays bound in the presence of the test substance.

For data set [2], the target named is CYP2D6 (Homo sapiens, UniProt P10635). As to the kind of experiment: Inhibition of CYP2D6 at 10 uM. Type of data set: ADME.
CYP2D6, sequence (P10635 whole entry): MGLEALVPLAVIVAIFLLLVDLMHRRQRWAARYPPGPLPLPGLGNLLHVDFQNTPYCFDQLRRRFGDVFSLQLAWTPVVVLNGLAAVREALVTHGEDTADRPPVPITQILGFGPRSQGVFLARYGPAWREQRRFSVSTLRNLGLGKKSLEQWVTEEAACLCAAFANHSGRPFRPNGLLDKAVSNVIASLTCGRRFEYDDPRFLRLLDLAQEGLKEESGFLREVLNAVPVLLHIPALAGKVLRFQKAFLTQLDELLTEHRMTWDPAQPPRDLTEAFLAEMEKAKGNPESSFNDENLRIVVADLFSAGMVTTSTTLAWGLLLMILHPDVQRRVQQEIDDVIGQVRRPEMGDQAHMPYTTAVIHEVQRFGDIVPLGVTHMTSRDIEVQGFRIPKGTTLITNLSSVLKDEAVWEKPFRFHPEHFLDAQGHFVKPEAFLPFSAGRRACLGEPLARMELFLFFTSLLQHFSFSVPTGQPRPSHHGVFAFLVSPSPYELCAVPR
For data set [3], the target named is CYP2C9 (Homo sapiens, UniProt P11712). As to the kind of experiment: Inhibition of CYP2C9 at 10 uM. The class given is ADME.
CYP2C9, sequence (P11712 whole entry): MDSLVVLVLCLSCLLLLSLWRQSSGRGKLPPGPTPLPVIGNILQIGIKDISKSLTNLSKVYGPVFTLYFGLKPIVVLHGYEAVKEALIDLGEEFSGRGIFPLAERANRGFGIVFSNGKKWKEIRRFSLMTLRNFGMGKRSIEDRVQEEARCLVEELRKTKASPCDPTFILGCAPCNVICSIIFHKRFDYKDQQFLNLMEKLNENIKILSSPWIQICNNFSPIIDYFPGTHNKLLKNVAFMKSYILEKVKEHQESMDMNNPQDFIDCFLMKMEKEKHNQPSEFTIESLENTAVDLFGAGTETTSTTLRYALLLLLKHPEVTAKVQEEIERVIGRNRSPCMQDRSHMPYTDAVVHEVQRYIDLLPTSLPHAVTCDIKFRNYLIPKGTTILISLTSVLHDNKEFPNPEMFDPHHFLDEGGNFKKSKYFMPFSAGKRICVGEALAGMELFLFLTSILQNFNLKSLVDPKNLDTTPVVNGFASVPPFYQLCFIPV

`CCOc1ccc(NC(=S)N2CCC(C(O)(c3ccccc3)c3ccccc3)CC2)cc1` registered an IC50 in data set [1] of 200 nM. Consider `COc1cccnc1C(=O)N1CCN(c2ccc(NC(C)(C)c3ccccc3)cc2Cl)CC1`, for which the half-inhibitory concentration (IC50) in data set [1] is 25 nM.

The compound `COC(=O)C(c1ccccc1)N1CCN(c2ccc(NC(=O)c3ccccc3-c3ccncc3)cc2)CC1` (stereo not drawn) returned a half-maximal inhibitory concentration (IC50) in data set [1] of 240 nM. `COC(=O)C(c1ccccc1)N1CCN(c2ccc(NC(=O)c3ccccc3-c3ccncc3)cc2F)CC1` (stereo not drawn) yielded an IC50 in data set [1] of 37 nM. In data set [1], `COC(=O)C(c1ccccc1)N1CCN(c2ccc(NC(=O)c3ccccc3-c3ccccc3)cc2)CC1` (stereo not drawn) yielded an IC50 of 530 nM.

In turn, `COC(=O)C(c1ccccc1)N1CCN(c2ccc(NC(=O)c3ccccc3-c3ccccc3)cc2F)CC1` (stereo not drawn) displayed an IC50 in data set [1] of 52 nM. For `COC(=O)C(c1ccccc1)N1CCN(c2ccc(NC(=O)c3ccccc3-c3ccccc3)cc2C#N)CC1` (stereo not drawn), the IC50 in data set [1] worked out at 25 nM. On the same count and under the same terms, the result for `COC(=O)C(c1ccccc1)N1CCN(c2ccc(NC(=O)c3ccccc3-c3ccccc3)cc2C)CC1` (stereo not drawn) reads 100 nM. `COC(=O)C(c1ccccc1)N1CCN(c2ccc(NC(=O)c3ccccc3-c3cccnc3)cc2)CC1` (stereo not drawn): the concentration for half-maximal inhibition (IC50) in data set [1] is 220 nM. Regarding `COC(=O)C(c1ccccc1)N1CCN(c2ccc(NC(=O)c3ccccc3-c3cccnc3)cc2F)CC1` (stereo not drawn), in data set [1], the IC50 was determined as 40 nM. With `CCC(CC)C(=O)Nc1ccc(N2CCN(C(C(=O)OC)c3ccccc3)CC2)c(F)c1` (stereo not drawn), in data set [1], the IC50 amounted to 165 nM. Still for that read-out and setting: as for `CCNC(=O)C(c1ccccc1)N1CCN(c2ccc(NC(=O)c3ccccc3-c3ccccc3)cc2F)CC1` (stereo not drawn), the figure is 35 nM; as for `CCNC(=O)C(c1ccccc1)N1CCN(c2ccc(NC(=O)c3ccccc3-c3ccccc3)cc2C#N)CC1` (stereo not drawn), 11 nM.

`CCNC(=O)C(c1ccccc1)N1CCN(c2ccc(NC(=O)c3ccccc3-c3cccnc3)cc2F)CC1` (stereo not drawn) gave an IC50 in data set [1] of 42 nM. On the same count and under the same terms, as for `CCNC(=O)C(c1ccccc1)N1CCN(c2ccc(NC(=O)c3ccccc3-c3cccnc3)cc2C#N)CC1` (stereo not drawn), the figure is 30 nM; as for `CCNC(=O)C(c1ccccc1)N1CCN(c2ccc(NC(=O)C(CC)CC)cc2F)CC1` (stereo not drawn), 370 nM. On to `CCNC(=O)C(c1ccccc1)N1CCN(c2ccc(NC(=O)C(CC)CC)cc2C#N)CC1` (stereo not drawn), for which the IC50 in data set [1] was 150 nM. Same read-out and setting: as for `CCN(CC)C(=O)[C@@H](c1ccccc1)N1CCN(c2ccc(NC(=O)c3ccccc3-c3cccnc3)cc2F)CC1`, the figure is 9 nM. `CCN(CC)C(=O)[C@H](c1ccccc1)N1CCN(c2ccc(NC(=O)c3ccccc3-c3cccnc3)cc2F)CC1`: in data set [1], the half-maximal inhibitory concentration (IC50) was 14 nM. In the case of `CCN(CC)C(=O)C(c1ccccc1)N1CCN(c2ccc(NC(=O)c3ccccc3-c3cccnc3)cc2F)CC1` (racemic), in data set [1], the concentration for half-maximal inhibition (IC50) is 6 nM. In data set [1], `CCN(CC)C(=O)C(c1ccccc1)N1CCN(c2ccc(NC(=O)c3ccccc3-c3ccccc3)cc2F)CC1` (racemic) displayed an IC50 of 10 nM. Still for that read-out and setting: the result for `CCC(CC)C(=O)Nc1ccc(N2CCN(C(C(=O)N(CC)CC)c3ccccc3)CC2)c(F)c1` (racemic) reads 50 nM; that for `CCN(CC)C(=O)C(c1ccccc1)N1CCN(c2ccc(NC(=O)c3ccccc3-c3ccccc3)cc2C#N)CC1` (racemic; 28), 37 nM.

In data set [1], `CCN(CC)C(=O)C(c1ccccc1)N1CCN(c2ccc(NC(=O)c3ccccc3-c3ccccc3)cc2C#N)CC1` (racemic; 30) had a half-maximal inhibitory concentration (IC50) of 8 nM. In turn, `CCC(CC)C(=O)Nc1ccc(N2CCN(C(C(=O)N(CC)CC)c3ccccc3)CC2)c(C#N)c1` (racemic; 32) returned a concentration for half-maximal inhibition (IC50) in data set [1] of 200 nM. Turning to `CCC(CC)C(=O)Nc1ccc(N2CCN(C(C(=O)N(CC)CC)c3ccccc3)CC2)c(C#N)c1` (racemic; 34), the inhibition at 10 µM in data set [2] and in data set [3] was more than 75% in each case. In data set [1], the IC50 is 13 nM.

The values above are taken from ChEMBL document CHEMBL1821563, “The discovery and synthesis of JNJ 31020028, a small molecule antagonist of the Neuropeptide Y Y₂ receptor” (Bioorg Med Chem Lett, 2011).
